Earlier results in PMC5572576 (The Lancet. Oncology, 2017).
Read-outs that look alike come from different tables or passages of the source.

What was measured:
patients with R/R AML [1] = conditions: cited from earlier work
patients with R/R AML [2] = conditions: cited from earlier work; remark: listed apart in the source
[3] = system: patients with newly diagnosed AML aged <60 years; conditions: added to intensive chemotherapy; cited from earlier work

In the case of CO[C@@H]1[C@H](N(C)C(=O)c2ccccc2)C[C@H]2O[C@]1(C)n1c3ccccc3c3c4c(c5c6ccccc6n2c5c31)C(=O)NC4 [midostaurin], the CR (patients with R/R AML [1]) is listed as “CR was not achieved”, the “Patients with a reduction in blast counts” value (patients with R/R AML [1]; patients with FLT3WT) is listed as 42% and the “Patients with a reduction in blast counts” value (patients with R/R AML [1]; patients with FLT3 mutations) is listed as 71%.

In the case of CC(C)(C)c1cc(NC(=O)Nc2ccc(-c3cn4c(n3)sc3cc(OCCN5CCOCC5)ccc34)cc2)no1 [quizartinib], the “Median OS” value (patients with R/R AML [2]; FLT3-ITD subgroup) is given as 18 weeks and the “Median OS” value (patients with R/R AML [2]; entire study population) is given as 14 weeks.

In the case of CNC(=O)c1cc(Oc2ccc(NC(=O)Nc3ccc(Cl)c(C(F)(F)F)c3)cc2)ccn1 [sorafenib], the “3-year event-free survival (EFS) rate” value [3] is listed as 40%.
